The results in this text go back to patent US12691114B2, “Compositions for inhibition of herpesviruses” (The Medical College of Wisconsin, Inc., priority 2020, dated 2026).

One data set concerns GCV-resistant HCMV Towne. Nature of the data set: Plaque reduction assay, GCV-resistant HCMV Towne in HFFs. The class given is cell-based, human cytomegalovirus. The conditions noted are these: Human betaherpesvirus 5, read-out: EC50—GCVR Towne (μM).
Another data set deals with HCMV TB40. The data set can be described thus: Plaque reduction assay, HCMV TB40 in HFFs. The note with it: 10 days. The class given is cell-based, human cytomegalovirus. As to the method:
Plaque reduction assay: HFFs were seeded into 12-well plates (2×10^5 cells/well) and infected with HCMV TB40 at approximately 100 plaques/well. After 90 min, media were aspirated, and DMEM containing 0.5% carboxymethyl-cellulose (CMC), 4% fetal bovine serum (FBS), and drugs were added into duplicate wells. Following incubation at 37° C. for 10-12 days the overlay was removed, and plaques were counted after crystal violet staining. For HSV1 and HSV2 replication in Vero cells, the adsorption time was 60 min and plaques were counted after 36 h. Plaque assays in MEFs were completed after 3 days.
Viral protein expression was measured by Western blot.
On the technique in general: In a plaque reduction assay, fewer plaques than in the control indicate reduced infectivity or spread.

A short description of a further data set: in vitro. The note with it: human. As to the method:
(§1) Cytotoxicity assay: MTT assay was performed as described by manufacturer's instructions (Sigma-Aldrich). Non-infected cells were treated with compounds for 72 h or 10 days (same time points of the antiviral assay), and 20 μL/well of MTT [3-(4, 5-Dimethyl-2-thiazolyl)-2, 5-diphenyl-2H-tetrazolium bromide], 5 mg/mL in phosphate buffered saline (PBS)] was added to each well. After shaking at 150 rpm for 5 min the plates were incubated at 37° C. for 2-3 h. Conversion of yellow solution to dark blue formazan by mitochondrial dehydrogenases of living cells was quantified by measuring absorbance at 560 nm.
(§2) HCMV inhibition was measured by luciferase activity of pp28-recombinant Towne and pp28 GCV-resistant Towne strains of HCMV (72 hpi) and by plaque reduction using HCMV Towne or TB40 (10 days). Viral protein expression was measured by Western blot.

Another data set deals with HCMV Towne. The data set can be described thus: Add-on and removal assays, luciferase at 72 hpi. The note with it: for stage of maximal activity during HCMV replication, in words: add-on and removal assays; for add-on assay result, in words: compound added at times after infection; for add-on assay result, in words / removal assay result, in words: luciferase 72 hpi; for removal assay result, in words: compound removed at times after infection. The class given is cell-based, human cytomegalovirus. As for the experimental part: Add-on and removal assays: These assays were performed to identify at which stage during HCMV replication the compounds had maximal activity. In the add-on group, compounds were added to infected HFFs at 0, 6, 24, and 48 hpi, and luciferase activity was measured at 72 hpi. In the removal group, compounds were added immediately after virus infection and were subsequently removed after 0, 6, 24, and 48 h; luciferase was measured at 72 hpi.
Timing of HCMV inhibition: Add-on and removal assays were performed. Compounds were added or removed at 0, 6, 12, 24, 36 and 48 hpi, and luciferase activity was measured at 72 hpi.

In a further data set the test system is MEFs. Nature of the data set: Toxicity to MEFs. The data set is classed as cell-based, mouse.
The subject of the next data set is HCMV Towne DNA. Nature of the data set: Viral DNA by US17 real-time PCR in cells and supernatants. The data set is classed as cell-based, human cytomegalovirus. The note with it: Towne MOI=0.1; NFU1827 5 μM, MLS8554 2 μM, MLS8091 1.5 μM, 2955 3 μM, GCV 5 μM. An excerpt:
DNA isolation and quantitative real-time (qPCR): Total DNA was isolated from non-infected control, and HCMV-infected HFFs using Wizard SV genomic DNA isolation kit (Promega, Madison, WI). To determine viral load in the supernatant, total DNA was isolated from supernatants using automated DNA extraction on the BioRobot M48 instrument (Qiagen, Valencia, CA). A US17 real-time PCR assay which targets 151-bp from the highly conserved US17 region of the CMV genome was used^39. The primers and probe for US17 are: […]
For orientation: Quantitative PCR measures a nucleic acid by following its amplification.

Another data set deals with non-infected HFFs. Nature of the data set: in vitro. As for the experimental part:
as §1, §2

Data set [1] deals with pp28-luciferase Towne HCMV. The data set can be described thus: Drug combination with GCV, pp28-luciferase Towne, Bliss model. The class given is cell-based, human cytomegalovirus. The note with it: combination experiment with GCV, pp28-luciferase; read-out: EC50 (μM) of Compound 2. As for the experimental part:
Drug combination and analysis: These experiments were performed as previously reported^40. The combination of GCV and each compound was tested using the pp28-luciferase. Briefly, 2×10^6 HFFs/plate were seeded in 96-well plates and infected with the pp28-luciferase Towne HCMV strain (MOI=1). First, a dose response curve was generated for each drug individually to determine its EC50. Then, drugs were combined at twice their EC50, diluted in DMEM with 4% FBS, followed by serial dilution and added together after infection. Luciferase activity of the combination and each drug individually was quantified at 72 hpi. The combination of letermovir and each of the new compounds was tested by the plaque assay using TB40. The same principle applied in this assay for the drug combination effect, and plaques were counted at 8 dpi. The Bliss model was used to calculate the effect of each drug combination on pp28-luciferase activity and plaque reduction. In this model, drug combination represents the product of two probabilistically independent events as described in the following equation^41.
[formula] Where D is the drug concentration, m is the slope, and EC50 is the effective concentration resulting in 50% virus inhibition. The combined effect of two inhibitors (Fu, fractional unaffected) is computed as the product of individual effects of the two inhibitors, Fu1 and Fu2. If the ratio of observed fold inhibition divided by the expected fold inhibition is greater than 1, the compounds are synergistic. If the ratio is less than 1, the combination is considered antagonistic, and if it equals to 1 the combination is additive.
Pattern of drug combination with GCV and letermovir: The effect of each compound alone or in combination with GCV or letermovir was tested in HCMV-infected HFFs. […] For letermovir and its combination with each of the five compounds the EC50 was determined based on plaque assay. […] All other combinations and Bliss coefficients were measured by pp28- luciferase.

The next data set relates to Epstein Barr Virus (EBV). The data set can be described thus: Inhibition of lytic EBV replication in Akata cells, real-time PCR of BALF5. The data set is classed as cell-based. The note with it: real-time PCR at 48 hours, NA = Not active. As to the method: Inhibition of lytic Epstein Barr Virus (EBV) replication: Akata cells (0.5×10^6/well of 24-well plate) latently infected with EBV were induced with 100 μg/ml of goat antihuman IgG (Sigma). Compounds and GCV control were added to triplicate wells immediately after the addition of human IgG. Cells were collected 48 hours after lytic induction for DNA quantification. Cellular DNA was purified using Wizard SV Genomic Kit (Promega, Madison, WI). The effect of the compounds on lytic induction of EBV was analyzed by real-time PCR of the EBV DNA polymerase gene, BALF5^38.
Inhibition of other herpesviruses: Inhibition of herpes simplex 1 and 2 (HSV1, HSV2), Epstein Barr virus (EBV) and mouse CMV (MCMV) was tested with the five compounds. Plaque reductions assays were used for HSV1, HSV2 and MCMV. Inhibition of lytic EBV replication was measured by real-time PCR in AKATA cells following IgG induction. Only MLS8554 was active against HSV1, HSV2 and MCMV (Table 2).

For the molecule `CC(C)NC(=O)C1CCN(C(=O)c2cc3sccc3n2Cc2ccc(Cl)cc2)CC1` [NCGC2955, 1-(4-(4-chlorobenzyl)-4H-thieno[3,2-b]pyrrole-5-carbonyl)-N-isopropylpiperidine-4-carboxamide], in the data set with GCV-resistant HCMV Towne, the EC50 (in general, the concentration that produces a half-maximal response) came to 1.4 ± 0.2 µM. Further, it took 1180 ± 200 nM to reach a half-maximal effect in the data set on HCMV TB40 (Human betaherpesvirus 5, 240 h) (EC50). In addition, the CC50 in the data set “in vitro” is over 200000 nM. For the same molecule, in the data set with HCMV Towne, the “stage of maximal activity during HCMV replication, in words” value (“stage” for short) is “early-late stage”; the “add-on assay result, in words” value was “overlapped with GCV”; the “removal assay result, in words” value is reported as “longer activity than GCV”. For the same molecule, the “concentration at which toxicity to MEFs was observed” value in the data set on MEFs is at least 10 µM. Also, in the data set with HCMV Towne DNA, the “viral DNA replication in cells, in words” value is recorded as “modest” and the “viral DNA yield in supernatant, in words” value is “modest”.

In the data set on HCMV TB40, `CCc1ccc(NC(=O)[C@H](Cc2c[nH]c3ccccc23)NC(=O)[C@@H]2Cc3ccccc3CN2)cc1` [MLS8554] returned an EC50 of 340 nM. This molecule also gave a CC50 in the data set with non-infected HFFs of 86000 nM. Also, in the data set with HCMV Towne, the “stage” value was “immediate early-early”; the “add-on assay result, in words” value is recorded as “activity was significantly reduced”; the “removal assay result, in words” value was “near complete”. For the same molecule, the 50% effective concentration (EC50) in data set [1] is 0.55 ± 0.02 µM. Also, in the data set with HCMV Towne DNA, the “viral DNA replication in cells, in words” value is recorded as “reduced” and the “viral DNA yield in supernatant, in words” value is reported as “reduced”.

In the data set with HCMV TB40, `Nc1c(S(=O)(=O)c2cccs2)c2nc3ccccc3nc2n1Cc1ccccc1` [MLS8091] gave an EC50 of 330 nM. In addition, in the data set with non-infected HFFs, the CC50 is over 250000 nM. Also, in the data set with HCMV Towne, the “stage” value was “early-late stage”; the “add-on assay result, in words” value was “overlapped with that of GCV”; the “removal assay result, in words” value was “showed earlier effects”. Also, in [1], the half-maximal effective concentration (EC50) came out at 0.57 ± 0.07 µM. Further, the EC50 in the data set with Epstein Barr Virus (EBV) (IgG induction) was over 10000 nM. Also, in the data set on HCMV Towne DNA, the “viral DNA replication in cells, in words” value is recorded as “higher than that achieved with GCV” and the “viral DNA yield in supernatant, in words” value is “not significantly different from GCV”.

Turning to `CCN1CCN(CCCNC(=O)c2ccc3c(c2)sc2nc(-c4ccc(OC)cc4)cn23)CC1` [NFU1827, N-[3-(4-ethylpiperazin-1-yl)propyl]-4-(4-methoxyphenyl)-7-thia-2,5-diazatricyclo [6.4.0.02,6] dodeca-1(8),3,5,9,11-pentaene-10-carboxamide], the EC50 in the data set on HCMV TB40 (Human betaherpesvirus 5, 240 h) was found to be 1210 ± 100 nM. Further, the CC50 in the data set “in vitro” came out at 70900 nM. In the data set on HCMV Towne, the “stage” value is reported as “immediate early-early”; the “add-on assay result, in words” value is “lost its ability to inhibit HCMV”; the “removal assay result, in words” value was “significant HCMV suppression”. Moreover, the EC50 with Epstein Barr Virus (EBV) (human gammaherpesvirus 4, IgG induction) came to 1920 ± 100 nM. In the data set on HCMV Towne DNA, the “viral DNA replication in cells, in words” value is reported as “significantly reduced” and the “viral DNA yield in supernatant, in words” value was “significantly reduced”.
